According to US8987248B2, “Substituted piperidines as Par-1 antagonists” (Bayer Intellectual Property GmbH, priority 2009, dated 2015):
Where a name gives a salt, the structure may show the parent alone.

Biological target: human protease activated receptor 1 (PAR-1) (Homo sapiens (Human), UniProt P25116)
Experiment: Cellular, functional in vitro test (aequorin luminescence, calcium release in recombinant HEK293 PAR-1 test cell)
Type: cell-based
Conditions: HEK293-derived PAR-1 test cell line expressing aequorin; PAR-1 agonist added at its EC50, 5 min after test substance
Description: 1.a) Cellular, Functional In Vitro Test
A recombinant cell line is used to identify […] of the human protease activated receptor 1 (PAR-1) and to quantify the activity of the substances described herein. The cell is originally derived from a human embryonal kidney cell (HEK293; ATCC: American Type Culture Collection, Manassas, Va. 20108, USA). The test cell line constitutively expresses a modified form of the calcium-sensitive photoprotein aequorin which, after reconstitution with the cofactor coelenterazine, emits light when the free calcium concentration in the inner mitochondrial compartment is increased (Rizzuto R, Simpson A W, Brini M, Pozzan T.; Nature 1992, 358, 325-327). Additionally, the cell stably expresses the endogenous human PAR-1 receptor and the endogenous purinergic receptor P2Y2. The resulting PAR-1 test cell responds to stimulation of the endogenous PAR-1 or P2Y2 receptor with an intracellular release of calcium ions, which can be quantified through resulting aequorin luminescence with a suitable luminometer (Milligan G, Marshall F, Rees S, Trends in Pharmacological Sciences 1996, 17, 235-237).
For the testing of the substance specificity, the effect thereof after activation of the endogenous PAR-1 receptor is compared with the effect after activation of the endogenous purinergic P2Y2 receptor which utilizes the same intracellular signal path.
Two days (48 hours) before the assay, the cells are plated out in culture medium (DMEM F12, supplemented with 10% FCS, 2 mM glutamine, 10 mM HEPES, 1.4 mM pyruvate, 0.1 mg/ml gentamycin, 0.15% Na bicarbonate; BioWhittaker Cat. #BE04-687Q; B-4800 Verviers, Belgium) in 384-well microtitre plates and kept in a cell incubator (96% humidity, 5% v/v CO2, 37° C.). On the day of the test, the culture medium is replaced by a tyrode solution (in mM: 140 sodium chloride, 5 potassium chloride, 1 magnesium chloride, 2 calcium chloride, 20 glucose, 20 HEPES), which additionally contains the cofactor coelenterazine (25 μM) and glutathione (4 mM), and the microtitre plate is then incubated for a further 3-4 hours. The test substances are then pipetted onto the microtitre plate, and 5 minutes after the transfer of the test substances into the wells of the microtitre plate the plate is transferred into the luminometer, a PAR-1 agonist concentration which corresponds to the EC50 is added and the resulting light signal is immediately measured in the luminometer. To distinguish an antagonist substance action from a toxic action, the endogenous purinergic receptor is immediately subsequently activated with agonist (ATP, final concentration 10 μM) and the resulting light signal is measured.

Sequence of human protease activated receptor 1 (PAR-1) (P25116 22-425): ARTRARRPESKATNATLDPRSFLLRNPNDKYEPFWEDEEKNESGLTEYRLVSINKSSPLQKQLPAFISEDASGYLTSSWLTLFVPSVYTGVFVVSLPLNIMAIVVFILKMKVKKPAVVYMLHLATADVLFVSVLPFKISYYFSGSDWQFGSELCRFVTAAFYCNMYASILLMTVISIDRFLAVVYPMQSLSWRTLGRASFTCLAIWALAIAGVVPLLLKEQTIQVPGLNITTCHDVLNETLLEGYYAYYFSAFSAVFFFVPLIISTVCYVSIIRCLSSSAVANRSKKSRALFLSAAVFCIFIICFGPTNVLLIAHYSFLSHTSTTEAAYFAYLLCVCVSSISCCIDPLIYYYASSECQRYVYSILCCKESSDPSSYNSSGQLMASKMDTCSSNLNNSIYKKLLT

Row | IC50 [nM] | SMILES
1 | 29 | CCc1ccc(C2CC(C(=O)Nc3ccccc3)CN(C(=O)C(C)(C)CF)C2)cc1 (racemic) [Example 7, 5-(4-Ethylphenyl)-1-(3-fluoro-2,2-dimethylpropanoyl)-N-phenylpiperidine-3-carboxamide]
2 | 109 | CCc1ccc(C2CC(C(=O)Nc3ccccc3)CN(C(=O)CCOC)C2)cc1 (racemic) [Example 8, 5-(4-Ethylphenyl)-1-(3-methoxypropanoyl)-N-phenylpiperidine-3-carboxamide]
3 | 483 | CCc1ccc(C2CC(C(=O)Nc3ccccc3)CN(C(=O)C3(CC)COC3)C2)cc1 (racemic) [Example 18]
4 | 98.2 | CCc1ccc(C2CC(C(=O)Nc3ccccc3)CN(C(=O)c3scnc3C)C2)cc1 (racemic) [Example 36]
5 | 19.7 | CCc1ccc(C2CC(NC(=O)c3ccc(-c4cccc(C(F)(F)F)c4)cn3)CN(C(=O)C3CCCC3)C2)cc1 (racemic) [Example 83, N-[1-(Cyclopentylcarbonyl)-5-(4-ethylphenyl)piperidin-3-yl]-5-[3-(trifluoromethyl)phenyl]pyridine-2-carboxamide]
6 | 359 | CCc1ccc(C2CC(NC(=O)C(C)(C)C)CN(C(=O)C3CCCC3)C2)cc1 (racemic) [Example 90, N-[1-(Cyclopentylcarbonyl)-5-(4-ethylphenyl)piperidin-3-yl]-2,2-dimethylpropanamide]
7 | 17.4 | CCc1ccc(C2CC(NC(=O)Nc3ccccc3)CN(C(=O)N3CCCC3)C2)cc1 (racemic) [Example 91, N-[5-(4-Ethylphenyl)-1-(pyrrolidin-1-ylcarbonyl)piperidin-3-yl]-3-phenylurea]
8 | 237 | CCc1ccc(C2CC(NC(=O)N(C)c3ccccc3)CN(C(=O)C3CCCC3)C2)cc1 (racemic) [Example 95, 3-[1-(Cyclopentylcarbonyl)-5-(4-ethylphenyl)piperidin-3-yl]-1-methyl-1-phenylurea]
9 | 165 | CCc1ccc(C2CC(NC(=O)OC)CN(C(=O)N3CCOCC3)C2)cc1 (racemic) [Example 102, Methyl [5-(4-ethylphenyl)-1-(morpholin-4-ylcarbonyl)piperidin-3-yl]carbamate]
10 | 248 | CCc1ccc(C2CC(NS(=O)(=O)Cc3ccccc3)CN(C(=O)C3CCCC3)C2)cc1 (racemic) [Example 104, N-[1-(Cyclopentylcarbonyl)-5-(4-ethylphenyl)piperidin-3-yl]-1-phenylmethanesulphonamide]
11 | 15.7 | Cc1ccc(C2CC(NC(=O)c3ccccc3)CN(C(=O)C3(N)CCC3)C2)cc1C (racemic) [Example 119, N-{1-[(1-Aminocyclobutyl)carbonyl]-5-(3,4-dimethylphenyl)piperidin-3-yl}benzenecarboxamide hydrochloride]
12 | 33.6 | O=C(NC1CC(c2ccc(C(F)(F)F)cc2)CN(C(=O)N2CCC(O)CC2)C1)c1ccccc1 (racemic) [Example 129, N-{1-[(4-Hydroxypiperidin-1-yl)carbonyl]-5-[4-(trifluoromethyl)phenyl]piperidin-3-yl}benzenecarboxamide]
13 | 14.6 | C[C@@H]1CC[C@@H](C)N1C(=O)N1CC(NC(=O)c2ccccc2)CC(c2ccc(C(F)(F)F)cc2)C1 (mixture of isomers) [Example 133, N-(1-{[(2R,5R)-2,5-Dimethylpyrrolidin-1-yl]carbonyl}-5-[4-(trifluoromethyl)phenyl]piperidin-3-yl)benzenecarboxamide]
14 | 15.4 | O=C(NC1CC(c2ccc(C(F)(F)F)cc2)CN(C(=O)N2CCS(=O)(=O)CC2)C1)c1ccccc1 (racemic) [Example 134, N-{1-[(1,1-Dioxidothiomorpholin-4-yl)carbonyl]-5-[4-(trifluoromethyl)phenyl]piperidin-3-yl}-benzenecarboxamide]
15 | 53.7 | O=C1CN(C(=O)N2CC(NC(=O)c3ccccc3)CC(c3ccc(C(F)(F)F)cc3)C2)CCN1 (racemic) [Example 141, N-{1-[(3-Oxopiperazin-1-yl)carbonyl]-5-[4-(trifluoromethyl)phenyl]piperidin-3-yl}benzenecarboxamide]
16 | 25 | Cc1cccc(C(=O)NC2CC(c3ccc(C(F)(F)F)cc3)CN(C(=O)N3CCOCC3)C2)n1 (racemic) [Example 162]
17 | 21.3 | O=C(NC1CC(c2ccc(C(F)(F)F)cc2)CN(C(=O)N2CCC(O)CC2)C1)C1CCCC1 (racemic) [Example 170, N-{1-[(4-Hydroxypiperidin-1-yl)carbonyl]-5-[4-(trifluoromethyl)phenyl]piperidin-3-yl}cyclopentanecarboxamide]
18 | 11.1 | O=C(NC1CC(c2ccc(OC(F)(F)F)cc2)CN(C(=O)c2ccncc2)C1)c1ccccc1 (single isomer, unassigned) [Example 115, N-{1-(Pyridin-4-ylcarbonyl)-5-[4-(trifluoromethoxy)phenyl]piperidin-3-yl}benzenecarboxamide]
19 | 17 | O=C(NC1CC(c2ccc(C(F)(F)F)cc2)CN(C(=O)N2CCOCC2)C1)c1ccccc1 (single isomer, unassigned) [Example 128, N-{1-(Morpholin-4-ylcarbonyl)-5-[4-(trifluoromethyl)phenyl]piperidin-3-yl}benzenecarboxamide]
20 | 81 | O=C(NC1CC(c2ccc(C(F)(F)F)cc2)CN(C(=O)N2CCC(O)CC2)C1)C1CCCC1 (single isomer, unassigned) [Example 177, N-{1-[(4-Hydroxypiperidin-1-yl)carbonyl]-5-[4-(trifluoromethyl)phenyl]piperidin-3-yl}cyclopentanecarboxamide]
21 | 63 | N#CC1CCN(C(=O)N2CC(NC(=O)C3CCCC3)CC(c3ccc(C(F)(F)F)cc3)C2)CC1 (single isomer, unassigned) [Example 178, N-{1-[(4-Cyanopiperidin-1-yl)carbonyl]-5-[4-(trifluoromethyl)phenyl]piperidin-3-yl}cyclopentanecarboxamide]
